Patent publication US7846697B2, “Method of producing a low molecular weight organic compound in a cell” (BLMaps, priority 2003, dated 2010)

Columns and labels:
[1] = Halkier and Møller, 1989; cited from earlier work

SMILES	stability in aqueous solutions [1]	toxicity to microbial organisms compared with the aglycon vanillin (microbial organisms)
N#CC(O)c1ccc(O)cc1 (centres unmarked) [p-hydroxymandelonitrile]	highly unstable	–
COc1cc(C=O)ccc1O[C@@H]1O[C@H](CO)[C@@H](O)[C@H](O)[C@H]1O [vanillin glucoside, vanillin-β-D-glucoside]	–	much less toxic
